Test results published in publication PMC9954146, “Anti-Leukaemic Activity of Rilpivirine Is Mediated by Aurora A Kinase Inhibition” (Cancers, 2023).

Tests used:
Test in all cases: Kinase panel
Assay type in all cases: biochemical
Conditions in all cases: read-out: % Residual Activity
[1] = target: T1, ALK1(h) (Homo sapiens, UniProt P37023)
T1 construct: purchased Eurofins (KinaseProfiler)
Protocol: (§1) Kinome-wide selectivity of rilpivirine was measured using the kinase screening and profiling service of Eurofins Scientific (Le bois l’Evêque 86600. Celle-Lévescault, France) and Ki values were determined using radioisotope-based assays by Reaction Biology Corporation (Malvern, PA, USA). The experimental details of Eurofin Scientific and Reaction Biology services for relevant assays are available at https://www.eurofinsdiscoveryservices.com/services/in-Vitro-assays/kinases/kinase-profiler (accessed on 7 July 2021) and https://www.reactionbiology.com (accessed on 7 July 2021), respectively. Ki values were estimated from the corresponding IC50 values using the Cheng–Prusoff equation [21] and the Km (ATP) of individual kinase was used for IC50 determination.

[2] = target: T2, Abl (H396P) (h) (Homo sapiens, UniProt P00519, H396P)
T2 construct: purchased Eurofins (KinaseProfiler)
Protocol: as §1

[3] = target: T3, Abl (Q252H) (h) (Homo sapiens, UniProt P00519, Q252H)
T3 construct: purchased Eurofins (KinaseProfiler)
Protocol: as §1

[4] = target: T4, Abl(h) (Homo sapiens, UniProt P00519)
T4 construct: purchased Eurofins (KinaseProfiler)
Protocol: as §1

[5] = target: T5, CDK14/cyclinY(h) (Homo sapiens, UniProt O94921)
T5 construct: purchased Eurofins (KinaseProfiler)
Protocol: as §1

[6] = target: T6, CDK2/cyclinA(h) (Homo sapiens, UniProt P24941)
T6 construct: purchased Eurofins (KinaseProfiler)
Protocol: as §1

[7] = target: T7, CK1γ3(h) (Homo sapiens, UniProt Q9Y6M4)
T7 construct: purchased Eurofins (KinaseProfiler)
Protocol: as §1

[8] = target: T8, CaMKK2(h) (Homo sapiens, UniProt Q96RR4)
T8 construct: purchased Eurofins (KinaseProfiler)
Protocol: as §1

[9] = target: T9, DRAK1(h) (Homo sapiens, UniProt Q9UEE5)
T9 construct: purchased Eurofins (KinaseProfiler)
Protocol: as §1

[10] = target: T10, DYRK2(h) (Homo sapiens, UniProt Q92630)
T10 construct: purchased Eurofins (KinaseProfiler)
Protocol: as §1

[11] = target: T11, EGFR(h) (Homo sapiens, UniProt P00533)
T11 construct: purchased Eurofins (KinaseProfiler)
Protocol: as §1

[12] = target: T12, FGFR1(h) (Homo sapiens, UniProt P11362)
T12 construct: purchased Eurofins (KinaseProfiler)
Protocol: as §1

[13] = target: T13, Flt4(h) (Homo sapiens, UniProt P35916)
T13 construct: purchased Eurofins (KinaseProfiler)
Protocol: as §1

[14] = target: T14, GCK(h) (Homo sapiens, UniProt Q12851)
T14 construct: purchased Eurofins (KinaseProfiler)
Protocol: as §1

[15] = target: T15, GRK6(h) (Homo sapiens, UniProt P43250)
T15 construct: purchased Eurofins (KinaseProfiler)
Protocol: as §1

[16] = target: T16, ICK(h) (Homo sapiens, UniProt Q9UPZ9)
T16 construct: purchased Eurofins (KinaseProfiler)
Protocol: as §1

[17] = target: T17, LTK(h) (Homo sapiens, UniProt P29376)
T17 construct: purchased Eurofins (KinaseProfiler)
Protocol: as §1

[18] = target: T18, Lck(h) activated (Homo sapiens, UniProt P06239)
T18 construct: purchased Eurofins (KinaseProfiler)
Protocol: as §1

[19] = target: T19, MAP4K4(h) (Homo sapiens, UniProt O95819)
T19 construct: purchased Eurofins (KinaseProfiler)
Protocol: as §1

[20] = target: T20, MARK4(h) (Homo sapiens, UniProt Q96L34)
T20 construct: purchased Eurofins (KinaseProfiler)
Protocol: as §1

[21] = target: T21, MRCKγ(h) (Homo sapiens, UniProt Q6DT37)
T21 construct: purchased Eurofins (KinaseProfiler)
Protocol: as §1

[22] = target: T22, PAK1(h) (Homo sapiens, UniProt Q13153)
T22 construct: purchased Eurofins (KinaseProfiler)
Protocol: as §1

[23] = target: T23, PDGFRα(V561D)(h) (Homo sapiens, UniProt P16234, V561D)
T23 construct: purchased Eurofins (KinaseProfiler)
Protocol: as §1

[24] = target: T24, PKAcβ(h) (Homo sapiens, UniProt P22694)
T24 construct: purchased Eurofins (KinaseProfiler)
Protocol: as §1

[25] = target: T25, PKCα(h) (Homo sapiens, UniProt P17252)
T25 construct: purchased Eurofins (KinaseProfiler)
Protocol: as §1

[26] = target: T26, PKG1α(h) (Homo sapiens, UniProt Q13976)
T26 construct: purchased Eurofins (KinaseProfiler)
Protocol: as §1

[27] = target: T27, PTK5(h) (Homo sapiens, UniProt P42685)
T27 construct: purchased Eurofins (KinaseProfiler)
Protocol: as §1

[28] = target: T28, Ret(V804M)(h) (Homo sapiens, UniProt P07949, V804M)
T28 construct: purchased Eurofins (KinaseProfiler)
Protocol: as §1

[29] = target: T29, Ros(h) (Homo sapiens, UniProt P08922)
T29 construct: purchased Eurofins (KinaseProfiler)
Protocol: as §1

[30] = target: T30, Rsk1(h) (Homo sapiens, UniProt Q15418)
T30 construct: purchased Eurofins (KinaseProfiler)
Protocol: as §1

[31] = target: T31, Rsk3(h) (Homo sapiens, UniProt Q15349)
T31 construct: purchased Eurofins (KinaseProfiler)
Protocol: as §1

[32] = target: T32, SAPK2b(h) (Homo sapiens, UniProt Q15759)
T32 construct: purchased Eurofins (KinaseProfiler)
Protocol: as §1

[33] = target: T33, TAK1(h) (Homo sapiens, UniProt O43318)
T33 construct: purchased Eurofins (KinaseProfiler)
Protocol: as §1

[34] = target: T34, TNIK(h) (Homo sapiens, UniProt Q9UKE5)
T34 construct: purchased Eurofins (KinaseProfiler)
Protocol: as §1

[35] = target: T35, Tie2 (h) (Homo sapiens, UniProt Q02763)
T35 construct: purchased Eurofins (KinaseProfiler)
Protocol: as §1

[36] = target: T36, TrkC(h) (Homo sapiens, UniProt Q16288)
T36 construct: purchased Eurofins (KinaseProfiler)
Protocol: as §1

[37] = target: T37, ULK2(h) (Homo sapiens, UniProt Q8IYT8)
T37 construct: purchased Eurofins (KinaseProfiler)
Protocol: as §1

[38] = target: T38, WNK3(h) (Homo sapiens, UniProt Q9BYP7)
T38 construct: purchased Eurofins (KinaseProfiler)
Protocol: as §1

[39] = target: T39, ZAP-70(h) (Homo sapiens, UniProt P43403)
T39 construct: purchased Eurofins (KinaseProfiler)
Protocol: as §1

T38 sequence (Q9BYP7 whole entry): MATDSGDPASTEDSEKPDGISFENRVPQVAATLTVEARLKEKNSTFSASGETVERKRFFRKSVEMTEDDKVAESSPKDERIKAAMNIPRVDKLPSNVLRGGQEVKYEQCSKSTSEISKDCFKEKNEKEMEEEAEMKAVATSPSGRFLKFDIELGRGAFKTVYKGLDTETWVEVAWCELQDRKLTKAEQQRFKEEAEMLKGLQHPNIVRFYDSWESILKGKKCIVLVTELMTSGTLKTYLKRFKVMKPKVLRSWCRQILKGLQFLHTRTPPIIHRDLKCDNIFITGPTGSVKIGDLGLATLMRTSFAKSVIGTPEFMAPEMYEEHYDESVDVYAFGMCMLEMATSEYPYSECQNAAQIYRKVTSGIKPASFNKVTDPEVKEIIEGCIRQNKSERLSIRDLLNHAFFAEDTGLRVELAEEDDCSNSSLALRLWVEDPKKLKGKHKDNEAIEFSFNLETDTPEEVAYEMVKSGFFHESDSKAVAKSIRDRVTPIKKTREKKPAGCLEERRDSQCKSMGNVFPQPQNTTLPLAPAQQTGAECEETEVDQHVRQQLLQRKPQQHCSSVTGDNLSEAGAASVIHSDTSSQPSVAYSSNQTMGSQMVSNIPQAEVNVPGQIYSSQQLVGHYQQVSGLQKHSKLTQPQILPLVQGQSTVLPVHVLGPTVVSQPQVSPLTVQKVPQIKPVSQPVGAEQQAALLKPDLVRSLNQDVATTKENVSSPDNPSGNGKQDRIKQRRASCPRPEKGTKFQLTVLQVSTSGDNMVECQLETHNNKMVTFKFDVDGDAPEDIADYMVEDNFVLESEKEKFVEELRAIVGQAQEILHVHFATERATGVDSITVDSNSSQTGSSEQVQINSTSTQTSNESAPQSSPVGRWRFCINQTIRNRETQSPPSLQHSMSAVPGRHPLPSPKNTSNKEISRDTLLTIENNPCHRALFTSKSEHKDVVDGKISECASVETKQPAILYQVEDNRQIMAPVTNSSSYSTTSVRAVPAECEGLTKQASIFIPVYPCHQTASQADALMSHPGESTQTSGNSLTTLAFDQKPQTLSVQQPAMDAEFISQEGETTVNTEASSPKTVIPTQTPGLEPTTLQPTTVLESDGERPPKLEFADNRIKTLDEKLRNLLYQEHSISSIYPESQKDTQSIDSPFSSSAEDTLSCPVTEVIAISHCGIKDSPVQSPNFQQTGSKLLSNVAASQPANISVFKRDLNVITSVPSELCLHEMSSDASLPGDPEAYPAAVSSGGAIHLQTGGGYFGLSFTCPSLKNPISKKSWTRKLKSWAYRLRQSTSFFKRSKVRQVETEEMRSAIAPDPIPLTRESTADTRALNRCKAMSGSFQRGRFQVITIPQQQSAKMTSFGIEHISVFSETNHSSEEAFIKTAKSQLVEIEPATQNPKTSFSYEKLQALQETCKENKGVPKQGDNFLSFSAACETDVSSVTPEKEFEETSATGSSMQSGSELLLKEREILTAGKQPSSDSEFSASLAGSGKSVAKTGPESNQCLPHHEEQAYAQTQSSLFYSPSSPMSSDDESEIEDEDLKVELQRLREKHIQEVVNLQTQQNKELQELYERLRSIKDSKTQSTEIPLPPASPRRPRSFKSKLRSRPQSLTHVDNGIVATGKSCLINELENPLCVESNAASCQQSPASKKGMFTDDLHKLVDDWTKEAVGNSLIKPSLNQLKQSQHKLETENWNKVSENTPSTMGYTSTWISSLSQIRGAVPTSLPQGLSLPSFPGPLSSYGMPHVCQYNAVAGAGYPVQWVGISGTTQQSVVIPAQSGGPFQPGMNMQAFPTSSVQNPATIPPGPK
T31 sequence (Q15349 whole entry): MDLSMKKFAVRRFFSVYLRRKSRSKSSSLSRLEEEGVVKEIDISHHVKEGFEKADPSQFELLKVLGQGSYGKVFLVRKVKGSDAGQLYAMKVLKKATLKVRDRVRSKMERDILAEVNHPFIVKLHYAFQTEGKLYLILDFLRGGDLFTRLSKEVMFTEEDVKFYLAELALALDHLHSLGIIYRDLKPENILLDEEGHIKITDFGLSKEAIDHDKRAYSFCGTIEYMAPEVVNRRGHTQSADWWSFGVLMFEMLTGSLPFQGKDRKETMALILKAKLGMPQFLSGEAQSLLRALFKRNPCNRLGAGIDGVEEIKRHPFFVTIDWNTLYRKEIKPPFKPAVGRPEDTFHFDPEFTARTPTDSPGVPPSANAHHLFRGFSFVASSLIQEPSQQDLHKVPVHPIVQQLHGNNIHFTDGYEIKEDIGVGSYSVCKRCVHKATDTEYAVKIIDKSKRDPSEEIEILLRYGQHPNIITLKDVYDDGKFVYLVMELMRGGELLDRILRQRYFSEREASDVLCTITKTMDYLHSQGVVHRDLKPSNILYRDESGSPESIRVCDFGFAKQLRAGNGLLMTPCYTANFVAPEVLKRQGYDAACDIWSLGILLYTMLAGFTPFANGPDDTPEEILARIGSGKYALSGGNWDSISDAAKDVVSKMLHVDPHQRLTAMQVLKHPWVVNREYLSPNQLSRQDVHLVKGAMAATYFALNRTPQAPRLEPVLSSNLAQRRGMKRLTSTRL
T1 sequence (P37023 22-503): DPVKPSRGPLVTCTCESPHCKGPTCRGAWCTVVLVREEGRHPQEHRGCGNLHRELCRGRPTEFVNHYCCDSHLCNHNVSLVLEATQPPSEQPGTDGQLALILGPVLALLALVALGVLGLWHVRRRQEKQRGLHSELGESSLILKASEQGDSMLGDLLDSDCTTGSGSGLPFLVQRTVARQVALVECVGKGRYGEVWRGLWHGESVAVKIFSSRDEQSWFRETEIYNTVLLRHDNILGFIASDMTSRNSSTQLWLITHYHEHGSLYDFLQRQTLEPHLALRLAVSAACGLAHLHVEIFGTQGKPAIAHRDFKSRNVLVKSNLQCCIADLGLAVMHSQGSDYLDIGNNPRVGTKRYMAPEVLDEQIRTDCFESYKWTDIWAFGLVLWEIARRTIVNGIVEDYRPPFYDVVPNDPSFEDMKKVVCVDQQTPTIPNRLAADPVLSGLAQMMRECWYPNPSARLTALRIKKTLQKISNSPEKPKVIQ
T15 sequence (P43250 whole entry): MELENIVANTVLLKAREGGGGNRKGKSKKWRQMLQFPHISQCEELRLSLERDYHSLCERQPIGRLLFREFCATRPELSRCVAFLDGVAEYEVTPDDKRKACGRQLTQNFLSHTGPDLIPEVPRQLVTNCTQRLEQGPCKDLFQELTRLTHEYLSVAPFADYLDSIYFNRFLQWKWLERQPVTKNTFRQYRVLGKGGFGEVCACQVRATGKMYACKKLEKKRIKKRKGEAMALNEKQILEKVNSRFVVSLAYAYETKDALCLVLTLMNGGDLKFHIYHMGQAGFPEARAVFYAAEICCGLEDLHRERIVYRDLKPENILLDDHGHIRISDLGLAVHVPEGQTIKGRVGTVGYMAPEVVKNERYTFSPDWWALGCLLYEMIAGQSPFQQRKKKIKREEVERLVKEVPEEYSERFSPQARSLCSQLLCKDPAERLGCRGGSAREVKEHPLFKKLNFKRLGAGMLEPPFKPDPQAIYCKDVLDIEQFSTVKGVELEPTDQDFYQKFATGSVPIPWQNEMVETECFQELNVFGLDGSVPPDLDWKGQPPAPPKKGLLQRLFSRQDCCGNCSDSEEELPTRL
T14 sequence (Q12851 whole entry): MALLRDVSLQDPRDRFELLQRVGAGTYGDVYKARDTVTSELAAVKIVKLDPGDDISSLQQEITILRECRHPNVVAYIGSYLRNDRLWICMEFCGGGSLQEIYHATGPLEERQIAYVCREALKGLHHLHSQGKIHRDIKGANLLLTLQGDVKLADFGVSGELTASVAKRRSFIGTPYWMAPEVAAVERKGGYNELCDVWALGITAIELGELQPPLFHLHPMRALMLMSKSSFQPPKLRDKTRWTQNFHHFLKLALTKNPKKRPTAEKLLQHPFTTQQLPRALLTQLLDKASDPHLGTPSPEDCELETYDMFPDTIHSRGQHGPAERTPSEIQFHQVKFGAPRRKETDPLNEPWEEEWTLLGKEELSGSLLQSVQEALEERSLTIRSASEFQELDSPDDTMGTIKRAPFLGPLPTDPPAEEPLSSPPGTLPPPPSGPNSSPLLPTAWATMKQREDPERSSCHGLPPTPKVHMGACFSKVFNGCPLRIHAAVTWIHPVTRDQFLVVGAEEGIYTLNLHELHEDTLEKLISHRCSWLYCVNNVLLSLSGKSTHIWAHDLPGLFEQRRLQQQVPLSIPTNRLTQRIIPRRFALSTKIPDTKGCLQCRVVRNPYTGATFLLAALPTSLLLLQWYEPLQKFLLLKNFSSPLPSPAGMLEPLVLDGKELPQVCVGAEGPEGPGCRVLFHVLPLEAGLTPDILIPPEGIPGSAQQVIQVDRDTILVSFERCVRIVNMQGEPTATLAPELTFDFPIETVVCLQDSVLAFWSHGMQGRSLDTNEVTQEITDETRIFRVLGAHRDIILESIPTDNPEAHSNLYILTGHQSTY
T8 sequence (Q96RR4 whole entry): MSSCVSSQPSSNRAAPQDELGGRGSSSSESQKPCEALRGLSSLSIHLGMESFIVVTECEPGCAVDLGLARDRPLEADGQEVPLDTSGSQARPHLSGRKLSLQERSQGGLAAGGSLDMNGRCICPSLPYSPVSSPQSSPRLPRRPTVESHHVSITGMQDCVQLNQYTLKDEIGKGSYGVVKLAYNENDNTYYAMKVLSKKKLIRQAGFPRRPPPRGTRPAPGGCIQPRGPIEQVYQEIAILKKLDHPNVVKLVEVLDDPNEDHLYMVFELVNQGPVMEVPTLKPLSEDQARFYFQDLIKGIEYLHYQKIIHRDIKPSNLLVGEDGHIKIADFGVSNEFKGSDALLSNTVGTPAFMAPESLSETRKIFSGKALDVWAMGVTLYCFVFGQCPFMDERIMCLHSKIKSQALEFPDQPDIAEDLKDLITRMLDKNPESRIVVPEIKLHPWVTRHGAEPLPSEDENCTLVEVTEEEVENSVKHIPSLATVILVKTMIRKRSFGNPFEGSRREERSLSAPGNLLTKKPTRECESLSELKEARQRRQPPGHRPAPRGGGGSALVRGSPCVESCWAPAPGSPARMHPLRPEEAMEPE

Question: Which results are given for Cc1cc(/C=C/C#N)cc(C)c1Nc1ccnc(Nc2ccc(C#N)cc2)n1 [rilpivirine, (E)-4-((4-((4-(2-cyanoethenyl)-2,6-dimethylphenyl)amino)pyrimidin-2-yl)amino)benzonitrile]?
Answer: remaining activity at 1 µM [1]: 84%; remaining activity at 1 µM [2]: 71%; remaining activity at 1 µM [3]: 94%; remaining activity at 1 µM [4]: 86%; remaining activity at 1 µM [5]: 91%; remaining activity at 1 µM [6]: 87%; remaining activity at 1 µM [7]: 107%; remaining activity at 1 µM [8]: 109%; remaining activity at 1 µM [9]: 76%; remaining activity at 1 µM [10]: 89%; remaining activity at 1 µM [11]: 111%; remaining activity at 1 µM [12]: 94%; remaining activity at 1 µM [13]: 101%; remaining activity at 1 µM [14]: 99%; remaining activity at 1 µM [15]: 97%; remaining activity at 1 µM [16]: 99%; remaining activity at 1 µM [17]: 78%; remaining activity at 1 µM [18]: 54%; remaining activity at 1 µM [19]: 79%; remaining activity at 1 µM [20]: 88%; remaining activity at 1 µM [21]: 90%; remaining activity at 1 µM [22]: 92%; remaining activity at 1 µM [23]: 86%; remaining activity at 1 µM [24]: 93%; remaining activity at 1 µM [25]: 83%; remaining activity at 1 µM [26]: 88%; remaining activity at 1 µM [27]: 32%; remaining activity at 1 µM [28]: 92%; remaining activity at 1 µM [29]: 77%; remaining activity at 1 µM [30]: 91%; remaining activity at 1 µM [31]: 86%; remaining activity at 1 µM [32]: 98%; remaining activity at 1 µM [33]: 105%; remaining activity at 1 µM [34]: 50%; remaining activity at 1 µM [35]: 93%; remaining activity at 1 µM [36]: 91%; remaining activity at 1 µM [37]: 90%; remaining activity at 1 µM [38]: 83%; remaining activity at 1 µM [39]: 97%
